Read-outs that look alike come from different tables or passages of the source.
Legend:
[1] = target: T1, human A3 receptors (hA3) (Homo sapiens, UniProt P0DMS8); assay: Displacement of [125I]ABA binding at human A3 receptors expressed in HEK-293 cells; conditions: Table 1; [125I]ABA, HEK-293; read-out: hA3 Ki or IC50
T1 construct: expressed in transfected cells; host or cells: HEK-293
T1 sequence (P0DMS8 1-318): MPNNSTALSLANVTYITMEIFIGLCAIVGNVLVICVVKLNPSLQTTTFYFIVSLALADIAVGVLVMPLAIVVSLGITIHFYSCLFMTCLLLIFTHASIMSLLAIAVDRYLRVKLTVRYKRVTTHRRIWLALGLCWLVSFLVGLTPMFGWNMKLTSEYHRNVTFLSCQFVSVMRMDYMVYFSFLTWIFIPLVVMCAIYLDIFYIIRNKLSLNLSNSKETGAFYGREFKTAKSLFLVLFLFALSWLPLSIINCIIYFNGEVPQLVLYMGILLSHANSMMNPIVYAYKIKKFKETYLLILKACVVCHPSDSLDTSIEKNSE

[2] = target: T2, rat A1 receptors (rA1) (Rattus norvegicus, UniProt P25099); assay: Displacement of [3H]R-PIA binding in rat brain (cerebral cortical) membranes; conditions: for Ki: read-out: rA1 Ki or IC50
T2 construct: to A1 receptors from rat cerebral cortical membranes; from tissue; host or cells: rat cerebral cortical (brain) membranes
T2 sequence (P25099 1-326): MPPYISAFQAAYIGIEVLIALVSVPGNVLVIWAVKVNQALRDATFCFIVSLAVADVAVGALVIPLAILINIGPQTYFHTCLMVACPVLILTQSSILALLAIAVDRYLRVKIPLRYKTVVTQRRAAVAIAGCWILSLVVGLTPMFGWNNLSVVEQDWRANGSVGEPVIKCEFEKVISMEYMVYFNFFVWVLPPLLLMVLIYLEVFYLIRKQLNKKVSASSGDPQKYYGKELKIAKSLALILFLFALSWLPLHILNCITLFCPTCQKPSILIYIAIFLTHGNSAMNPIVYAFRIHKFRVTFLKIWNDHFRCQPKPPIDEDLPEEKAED
Protocol: (§1) Bruns, R. F. et al., Naunyn-Schmiedeberg's Arch. […] Binding of [^3H]R-N^6-phenylisopropyladenosine. Schwabe, U. et al., Naunyn-Schmiedeberg's Arch. […] (Dupont NEN, Boston, Mass.) to A2A receptors from rat striatal membranes was performed as described. […] All non-radioactive compounds were initially dissolved in DMSO, and diluted with buffer to the final concentration, where the amount of DMSO never exceeded 2%. Incubations were terminated by rapid filtration over Whatman GF/B filters, using a Brandell cell harvester (Brandell, Gaithersburg, Md.). The tubes were rinsed three times with 3 mL buffer each.
(§2) At least six different concentrations of competitor, spanning 3 orders of magnitude adjusted appropriately for the IC50 of each compound, were used. IC50 values, calculated with the nonlinear regression method implemented in (Graph-Pad Prism, San Diego, Calif.), were converted to apparent Ki values as described. Linden, J., J. Cycl. Nucl.

[3] = target: T3, human A2B receptors (hA2B) (Homo sapiens, UniProt P29275); assay: Radioligand binding ([125I]ABOPX / [3H]ZM241385) at human A2B receptors expressed in HEK-293 cells; conditions: for Ki: read-out: hA2B Ki or IC50
T3 construct: expressed in transfected cells; host or cells: HEK-293 (HEK-A2B, G418-selected)
T3 sequence (P29275 1-332): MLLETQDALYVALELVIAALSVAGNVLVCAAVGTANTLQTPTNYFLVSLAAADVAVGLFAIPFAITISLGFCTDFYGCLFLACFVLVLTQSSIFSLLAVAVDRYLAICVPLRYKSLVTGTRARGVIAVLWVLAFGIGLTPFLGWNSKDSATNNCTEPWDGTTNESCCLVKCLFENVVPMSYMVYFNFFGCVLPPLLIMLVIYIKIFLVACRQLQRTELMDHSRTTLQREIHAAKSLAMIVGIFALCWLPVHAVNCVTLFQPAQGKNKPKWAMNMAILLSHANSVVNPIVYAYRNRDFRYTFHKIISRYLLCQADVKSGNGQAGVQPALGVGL

[4] = target: T4, rat A2A receptors (rA2A) (Rattus norvegicus, UniProt P30543); assay: Displacement of [3H]CGS 21680 binding in rat striatal membranes; conditions: for Ki: read-out: rA2A Ki or IC50
T4 construct: to A2A receptors from rat striatal membranes was performed as described; from tissue; host or cells: rat striatal membranes
T4 sequence (P30543 whole entry): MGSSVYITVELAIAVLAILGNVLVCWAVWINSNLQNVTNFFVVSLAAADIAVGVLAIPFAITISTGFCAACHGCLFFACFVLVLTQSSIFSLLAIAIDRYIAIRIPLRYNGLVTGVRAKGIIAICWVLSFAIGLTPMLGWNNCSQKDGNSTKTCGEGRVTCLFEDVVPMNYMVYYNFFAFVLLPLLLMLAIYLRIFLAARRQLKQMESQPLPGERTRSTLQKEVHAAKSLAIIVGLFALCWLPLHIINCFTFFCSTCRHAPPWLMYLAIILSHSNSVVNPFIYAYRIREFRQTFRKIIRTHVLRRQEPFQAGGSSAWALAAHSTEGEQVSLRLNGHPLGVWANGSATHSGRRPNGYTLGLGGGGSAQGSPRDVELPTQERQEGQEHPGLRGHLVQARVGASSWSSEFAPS
Protocol: as §1, §2

[5] = target: T5, recombinant human A1 receptors (hA1) (Homo sapiens, UniProt P30542); assay: Radioligand binding ([3H]CPX) at recombinant human A1 receptors in HEK-293 cells; conditions: read-out: hA1 Ki, values marked (h); Table 1; recombinant human A1, HEK 293
T5 sequence (P30542 1-326): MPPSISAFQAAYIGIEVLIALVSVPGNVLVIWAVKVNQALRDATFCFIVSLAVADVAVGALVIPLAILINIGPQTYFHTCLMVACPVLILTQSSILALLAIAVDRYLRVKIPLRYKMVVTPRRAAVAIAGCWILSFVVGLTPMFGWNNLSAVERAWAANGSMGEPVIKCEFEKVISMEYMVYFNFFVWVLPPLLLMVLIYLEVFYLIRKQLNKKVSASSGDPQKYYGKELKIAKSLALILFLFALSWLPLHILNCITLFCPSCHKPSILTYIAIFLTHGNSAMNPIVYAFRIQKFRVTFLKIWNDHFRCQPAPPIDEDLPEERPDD

[6] = Table 1, [3H]R-PIA, rat brain membranes
[7] = Table 1, [3H]CGS 21680, rat striatal membranes

SMILES	melting point [°C]	Ki ([2]; Table 2) [nM]	Ki ([4]; Table 2) [nM]	Ki ([3]; Table 2) [nM]	also measured
CC(=O)c1ccccc1NC(=O)/C=C/c1ccc(-c2nc3c([nH]2)c(=O)n(Cc2ccccc2)c(=O)n3Cc2ccccc2)cc1 (hydrate or solvate) [Compound 37, 8-[4-(2-(2-Acetylphenyl)carbamoyl-trans-vinyl)phenyl]-1,3-dibenzylxanthine]	308 to 309	–	–	–	–
CCCn1c(=O)c2[nH]c(-c3ccc(OCC(=O)ON4C(=O)CCC4=O)cc3)nc2n(CCC)c1=O [Compound 4b]	–	–	–	–	Ki [1]: 227 nM; Ki [2, 6]: 153 nM; Ki ([3]; Table 1, [125I]ABOPX, HEK-293): 9.75 ± 4.8 nM; Ki [4, 7]: 127 nM
O=C(O)COc1ccc(-c2nc3c([nH]2)c(=O)n(Cc2ccccc2)c(=O)n3Cc2ccccc2)cc1 [Compound 7, 8-[4-[(Carboxymethyl)oxy]phenyl]-1,3-dibenzyl-xanthine]	> 310	–	–	–	Ki [2, 6]: 679 ± 190 nM; Ki ([3]; Table 1, [125I]ABOPX, HEK-293): 1760 nM; rA2A % displacement of specific binding ([4]; Table 1, at 100,000 nM): 25 ± 3%
O=C(O)C=Cc1ccc(-c2nc3c([nH]2)c(=O)n(CC2CCCCC2)c(=O)n3CC2CCCCC2)cc1 [Compound 9]	–	–	–	–	Ki [1]: 922 ± 399 nM; Ki [2, 6]: 602 ± 24 nM; Ki ([3]; Table 1, [125I]ABOPX, HEK-293): 199 ± 52 nM; Ki [5]: 4890 nM
O=C(O)/C=C/c1ccc(-c2nc3c([nH]2)c(=O)n(Cc2ccccc2)c(=O)n3Cc2ccccc2)cc1 [Compound 10, 8-(4-(2-Carboxy-trans-vinyl)phenyl)-1,3-dibenzyl-xanthine]	> 310	–	–	–	Ki [2, 6]: 201 ± 23 nM; Ki ([3]; Table 1, [125I]ABOPX, HEK-293): 469 ± 23 nM; Ki [4, 7]: 4450 nM
CCCn1c(=O)c2[nH]c(-c3ccc(OCC(N)=O)cc3)nc2n(CCC)c1=O [Compound 11]	–	20 ± 3.8	76.3 ± 14	–	more potent than the carboxylic acid 4a at A1 receptors ([2]; relative to 4a): 3 fold; potency versus the carboxylic acid 4a at A2B receptors ([3]; relative to 4a): equipotent; more potent than the carboxylic acid 4a at A2A receptors ([4]; relative to 4a): 29 fold
CCCn1c(=O)c2[nH]c(-c3ccc(OCC(=O)NC(c4ccccc4)c4ccccc4)cc3)nc2n(CCC)c1=O [Compound 14, 8-[4-[(Diphenylmethylcarbamoylmethyl)oxy]phenyl]-1,3-di-(n-propyl)xanthine]	269 to 270	120 ± 21	–	33.7 ± 17	rA2A % displacement ([4]; Table 2, at (1000)): 20 ± 8%
CCCn1c(=O)c2[nH]c(-c3ccc(OCC(=O)N(C)c4ccccc4)cc3)nc2n(CCC)c1=O [Compound 16, 8-[4-[(N-Methyl-N-phenylcarbamoylmethyl)oxy]phenyl]-1,3-di-(n-propyl)xanthine]	215	218 ± 80	497 ± 250	5.42 ± 1.71	selectivity for human A2B versus rat A1 receptors [3]: 40 fold; selectivity for human A2B versus rat A2A receptors [3]: 92 fold; reduction of affinity by N-methylation ([3]; N-methyl anilide versus anilide, human A2B): 3.7 fold
CCCn1c(=O)c2[nH]c(-c3ccc(OCC(=O)N(CC(=O)OCC)CC(=O)OCC)cc3)nc2n(CCC)c1=O [Compound 17, 8-[4-[(N,N-bis(Ethoxycarbonylmethyl)carbamoylmethyl)oxy]-phenyl]-1,3-di-(n-propyl)xanthine]	225	26.8 ± 2.4	999 ± 144	43.4 ± 8.4	–
CCCn1c(=O)c2[nH]c(-c3ccc(OCC(=O)Nc4ccc(C(N)=O)cc4)cc3)nc2n(CCC)c1=O [Compound 22, 8-[4-[((4-Carbamoyl)phenylcarbamoylmethyl)oxy]phenyl]-1,3-di-(n-propyl)xanthine]	> 310	10.2 ± 2.5	683 ± 167	7.75 ± 1.11	–
CCCn1c(=O)c2[nH]c(-c3ccc(OCC(=O)Nc4ccc(C(=O)NC)cc4)cc3)nc2n(CCC)c1=O [Compound 23, 8-[4-[((4-Methylcarbamoyl)phenylcarbamoylmethyl)oxy]phenyl]-1,3-di-(n-propyl)xanthine]	> 310	24.8 ± 1.8	98.1 ± 49.6	3.34 ± 0.51	–
CCCn1c(=O)c2[nH]c(-c3ccc(OCC(=O)Nc4ccc(C(=O)O)cc4)cc3)nc2n(CCC)c1=O [Compound 24, 8-[4-[((4-Carboxy)phenylcarbamoylmethyl)oxy]phenyl]-1,3-di-(n-propyl)xanthine]	> 310	145 ± 28	220 ± 79	16.1 ± 4.7	–
CCCn1c(=O)c2[nH]c(-c3ccc(OCC(=O)Nc4ccc(C)cc4)cc3)nc2n(CCC)c1=O [Compound 25]	–	17.5 ± 5	126 ± 38	1.88 ± 0.76	–
CCCn1c(=O)c2[nH]c(-c3ccc(OCC(=O)Nc4ccc(O)cc4)cc3)nc2n(CCC)c1=O [Compound 26]	–	5.88 ± 1.06	63.3 ± 20.4	3.71 ± 0.76	–
CC(=O)c1ccccc1NC(=O)/C=C/c1ccc(-c2nc3c([nH]2)c(=O)n(CC2CCCCC2)c(=O)n3CC2CCCCC2)cc1 [Compound 36, 8-[4-(2-(2-Acetylphenyl)carbamoyl-trans-vinyl)phenyl]-1,3-di-(cyclohexylmethyl)xanthine]	305	–	–	–	–
CC(=O)c1ccccc1NC(=O)COc1ccc(-c2nc3c([nH]2)c(=O)n(Cc2ccccc2)c(=O)n3Cc2ccccc2)cc1 [Compound 38, 8-[4-[((2-Acetylphenyl)carbamoylmethyl)oxy]phenyl]-1,3-dibenzyl-xanthine]	284	–	–	–	–
CCn1c(=O)c2[nH]c(-c3ccc(OCC(=O)Nc4ccc(C)cc4)cc3)nc2n(CC)c1=O [Compound 39]	–	–	–	–	Ki ([2]; Table 3): 34.9 ± 0.3 nM; Ki ([3]; Table 3): 1.78 ± 0.43 nM; Ki ([4]; Table 3): 71.1 ± 7.7 nM

— patent publication US6545002B1 (University of Virginia Patent Foundation, priority 1999, dated 2003)
